Data: patent US7893263B2, “Structural analogs of corosolic acid having anti-diabetic and anti-inflammatory properties” (Laila Nutraceuticals, priority 2004, dated 2011)
Each block holds one compound with its values, some of them ahead of it.

Tests used:
[1] = tested on: 5-Lipoxygenase; test: 5-Lipoxygenase inhibitory activity, colorimetric method (ferric xylenol orange, linoleic acid); format: biochemical
Protocol: 5-Lipoxygenase activity: The corosolic acid analogs were screened for their 5-Lipoxygenase inhibitory potential using colorimetric method. The assay mixture contained 50 mM phosphate buffer pH 6.3, 5-Lipoxygenase, various concentrations of test substances in dimethyl sulphoxide and linoleic acid in a total volume of 0.5 mL, after 5 min incubation of above reaction mixture, 0.5 mL ferric xylenol orange reagent was added and OD was measured after two minutes at 585 nm using spectrophotometer. Controls were run along with test in a similar manner except using vehicle instead of test substance solution. Percent inhibition was calculated by comparing absorbance of test solution with that of control.
The corosolic acid analogs of this invention are found to show good 5-lipoxygenase activity (Table 2; 5-lipoxygenase activity is expressed in % of inhibition at 100 μM and 250 μM; higher the % inhibitory values, higher is the activity).

[2] = tested on: Brine shrimp (Artemia salina) nauplii; test: in vivo; conditions: 24 h at 37° C., 10 nauplii per vial
Protocol: (§1) Brine shrimp lethality: Brine shrimp (Artemia salina) nauplii were hatched using brine shrimp eggs in a conical shaped vessel (1 L), filled with sterile artificial sea water (prepared using sea salt 38 g/L and adjusted to pH 8.5 using 1 N NaOH) under constant aeration for 48 h. After hatching, 10 nauplii were drawn through a pepette and placed in each vial containing 4.5 mL brine solution and added various concentrations of drug solutions and volume was made upto 5 mL using brine solution and maintained at 37° C. for 24 h under the light of incandescent lamps and surviving larvae were counted. Each experiment was conducted along with control (vehicle treated), at various concentrations of the test substance in each set that contains 6 tubes and the average results are reported. The percentage lethality was determined by comparing the mean mortal larvae of test and control tubes. LC50 values were obtained from the plot of concentration (μg) vs. percentage lethality. Podophyllotoxin was used as a positive control.
(§2) The corosolic acid analogs of this invention are found to show significant brine shrimp lethality (Table 3; brine shrimp lethality is expressed in LC50 at μM concentration; lower the LC50 value, higher is the activity).

[3] = tested on: Albino wistar rats; test: Hypoglycemic activity: inhibition of sucrose-induced raise in serum glucose levels (SGL); format: in vivo; set-up: Inhibitory rate (serum glucose level inhibitory rate): unit not given here; conditions: oral dose 1 mg/Kg; for SGL (mean ± SE): 20 mL/kg of 20% sucrose orally after 30 minutes, blood drawn one hour after treatment, groups of six rats; for Inhibitory rate (serum glucose level inhibitory rate): mean increase in serum glucose levels of treated vs control groups
Protocol: Hypoglycemic activity: Hypoglycemic activity was tested by the inhibition of sucrose-induced raise in serum glucose levels (SGL), by the test substances in Albino wistar rats. The procedure involves fasting the rats for overnight at ad libitum water, numbered weighed and randomly divided into groups of six animals each. Prior to treatment blood samples were drawn from sinus orbital plexus of all animals using heparin coated glass capillaries under mild ether anesthesia. The blood samples were tested for serum glucose levels using enzymatic GOD/POD method. […] SGL=(test OD/Standard OD)×100 and the results were expressed in mg/dL. All the groups were treated orally with corresponding test substances, standard, vehicle (5% gum acacia). After 30 minutes, all animals were given 20 mL/kg of 20% sucrose solution orally using gastric tube. One hour after treatment, blood samples were drawn again under mild ether anesthesia and tested for serum glucose levels in a same procedure as described above for initial serum glucose estimation. The data was subjected to statistical treatment using t-test and inhibitory rate was calculated by comparing mean increase in serum glucose levels of control and treated groups. The corosolic acid analogs of this invention are found to show better hypoglycemic activity (Table 1; hypoglycemic activity is expressed in serum glucose level inhibitory rate values; higher the inhibitory rate value, higher is the activity) than the corosolic acid.

[4] = in vivo; conditions: Artemia salina (brine shrimp), pH 8.5; 24 h at 37° C., 10 nauplii per vial
Protocol: as §1, §2

Compound: COc1cc(C(=O)OC(=O)C23CCC(C)C(C)C2C2=CCC4C5(C)CC(O)C(O)C(C)(C)C5CCC4(C)C2(C)CC3)cc(OC)c1OC (centres unmarked) [Compound 25, Corosolyl tri-O-methylgallate]
- % inhibition of 5-Lox activity ([1]; 250 μM): 38.83%
- LC50 [2]: > 200 µM
- SGL (mean ± SE) [3]: 131.84 ± 7.77 mg/dL
- Inhibitory rate (serum glucose level inhibitory rate) [3]: 9.84

Compound: CC1CCC23CCC4(C)C(=CC(OC2=O)C2C5(C)CC(O)C(O)C(C)(C)C5CCC24C)C3C1C (stereo not drawn) [Compound 26, 2α,3β-Dihydroxyurs-12-en-11,28-olide]
- % inhibition of 5-Lox activity ([1]; 250 μM): 10.47%
- LC50 [2]: 87 µM
- SGL (mean ± SE) [3]: 136.03 ± 4.43 mg/dL
- Inhibitory rate (serum glucose level inhibitory rate) [3]: 6.97

Compound: C[C@H]1[C@H](C)CC[C@]2(C(=O)O)CC[C@]3(C)C(=CC[C@@H]4[C@@]5(C)C[C@@H](O)[C@H](O)C(C)(C)[C@@H]5CC[C@]43C)[C@H]12 [Corosolic acid, 2α-hydroxyursolic acid]
- 5-LOX inhibitory activity (in words) [1]: on par with 3-O-acetyl-11-keto-β-boswellic acid (AKBA)
- % inhibition of 5-Lox activity ([1]; 100 μM): 13.48%
- % inhibition of 5-Lox activity ([1]; 250 μM): 29.26%
- LC50 at 24 h [4]: 3 µM
- SGL (mean ± SE) [3]: 121.43 ± 6.27 mg/dL
- Inhibitory rate (serum glucose level inhibitory rate) [3]: 9.78

Compound: COc1cc([C@@H]2c3cc4c(cc3[C@H](O)[C@H]3COC(=O)[C@H]23)OCO4)cc(OC)c1OC [podophyllotoxin, Podophyllotoxin, reference compound]
- LC50 at 24 h [4]: 7.7 µM

- % inhibition of 5-Lox activity ([1]; 100 μM): 2.91%
- % inhibition of 5-Lox activity ([1]; 250 μM): 19.63%
Compound: Corosolinol [Compound 23]
- LC50 [2]: 30.7 µM
- SGL (mean ± SE) [3]: 113.06 ± 2.61 mg/dL
- Inhibitory rate (serum glucose level inhibitory rate) [3]: 30.59
